{"source": "patent US20240368150A1", "about": "(Hoffmann-La Roche Inc., priority 2021, published 2024)", "system": "primary human T-cells", "assay": "Proliferation assay after 5 days (CellTiter-Glo, CD3 stimulation; PBS counter screen)", "type": "cell-based", "details": "Homo sapiens, T-cell, 120 h, CD3 stimulation; for Emax: 5 days, normalized to reference compound A1 as stimulator control = 100%, DMSO neutral control, read-out: Emax proliferation (% activation); for pEC50: primary human T-cells, CellTiter-Glo after 5 days, EC50 of fitted sigmoidal curve, read-out: Tcell Proliferation CD3 EC50", "method": "Compounds are then added (see next section) to medium only plates.\nCells are assessed for proliferation 5 days later by measuring […] using CellTiterGlo (Promega).\nAfter 5 days, for detection of ATP which is directly proportional to the number of cells present per well, the CellTiter-Glo® 2.0 Reagent is used. After visual control for toxicity or precipitations of the tested compounds, the plates are equilibrated to room temperature for 45 minutes. CellTiter-Glo® 2.0 Reagent is equilibrated to room temperature as well. After equilibration, an equal amount of CellTiter-Glo reagent is added to the cells (80 μl/well) with an electronic multichannel pipette. Plates are placed on a rocking platform for 15 minutes at room temperature. After incubation, the bottom of the plates is sealed with backing tape. Luminescence is measured with PHERAstar FSX (interval time 0.5 sec, gain 3000, focal height 15 mm) and exported as CSV file for analysis in Genedata screener.\nCompounds which activate unstimulated cells (see IL2 measurements) or compounds which negatively affected viability were flagged.", "note": "pEC50: −log10 of the molar value."}
{"smiles": "CCc1cn(-c2cc3c(cc2F)SC[C@H](N)C(=O)N3Cc2ccc(Cl)cc2)nn1", "note": "[Example 1, (3R)-3-amino-5-[(4-chlorophenyl)methyl]-7-(4-ethyltriazol-1-yl)-8-fluoro-2,3-dihydro-1,5-benzothiazepin-4-one]", "values": [{"measurement": "Emax", "result": 33, "unit": "%"}, {"measurement": "pEC50", "result": "< 4.70"}]}
{"smiles": "N[C@H]1CSc2cc(F)c(-n3cc(Cc4ccc(Cl)cc4)nn3)cc2N(Cc2ccc(Cl)cc2)C1=O", "note": "[Example 2, (3R)-3-amino-5-[(4-chlorophenyl)methyl]-7-[4-[(4-chlorophenyl)methyl]triazol-1-yl]-8-fluoro-2,3-dihydro-1,5-benzothiazepin-4-one]", "values": [{"measurement": "Emax", "result": 34, "unit": "%"}, {"measurement": "pEC50", "result": "< 4.70"}]}
{"smiles": "N[C@H]1CS(=O)(=O)c2cc(F)c(-n3cc(Cc4ccc(Cl)cc4)nn3)cc2N(Cc2ccc(Cl)cc2)C1=O", "note": "[Example 4, (3R)-3-amino-5-[(4-chlorophenyl)methyl]-7-[4-[(4-chlorophenyl)methyl]triazol-1-yl]-8-fluoro-1,1-dioxo-2,3-dihydro-1λ^6,5-benzothiazepin-4-one]", "values": [{"measurement": "Emax", "result": 168, "unit": "%"}, {"measurement": "pEC50", "result": 5.98}]}
{"smiles": "CCn1nnc(-c2cc3c(cc2F)S(=O)(=O)C[C@H](N)C(=O)N3Cc2ccc(Cl)cc2)n1", "note": "[Example 7, (3R)-3-amino-5-[(4-chlorophenyl)methyl]-7-(2-ethyltetrazol-5-yl)-8-fluoro-1,1-dioxo-2,3-dihydro-1λ^6,5-benzothiazepin-4-one]", "values": [{"measurement": "Emax", "result": 264, "unit": "%"}, {"measurement": "pEC50", "result": 5.56}]}
{"smiles": "N[C@H]1CS(=O)(=O)c2cc(F)c(-c3nc(C4CC4)no3)cc2N(Cc2ccc(Cl)cc2)C1=O", "note": "[Example 40, (3R)-3-amino-5-[(4-chlorophenyl)methyl]-7-(3-cyclopropyl-1,2,4-oxadiazol-5-yl)-8-fluoro-1,1-dioxo-2,3-dihydro-1λ^6,5-benzothiazepin-4-one]", "values": [{"measurement": "Emax", "result": 34, "unit": "%"}, {"measurement": "pEC50", "result": "< 4.70"}]}
{"smiles": "CCCc1noc(-c2cc3c(cc2F)S(=O)(=O)C[C@H](N)C(=O)N3Cc2ccc(Cl)cc2)n1", "note": "[Example 42, (3R)-3-Amino-5-[(4-chlorophenyl)methyl]-8-fluoro-1,1-dioxo-7-(3-propyl-1,2,4-oxadiazol-5-yl)-2,3-dihydro-1λ^6,5-benzothiazepin-4-one]", "values": [{"measurement": "Emax", "result": 80, "unit": "%"}, {"measurement": "pEC50", "result": 5.88}]}
{"smiles": "N[C@H]1CS(=O)(=O)c2cc(F)c(-c3nc(Cc4ccc(Cl)cc4)no3)cc2N(Cc2ccc(Cl)cc2)C1=O", "note": "[Example 44, (3R)-3-Amino-5-[(4-chlorophenyl)methyl]-7-[3-[(4-chlorophenyl)methyl]-1,2,4-oxadiazol-5-yl]-8-fluoro-1,1-dioxo-2,3-dihydro-1λ^6,5-benzothiazepin-4-one]", "values": [{"measurement": "Emax", "result": 122, "unit": "%"}, {"measurement": "pEC50", "result": 6.15}]}
{"smiles": "N[C@H]1CS(=O)(=O)c2cc(F)c(-c3nc(COCc4ccccc4)no3)cc2N(Cc2ccc(Cl)cc2)C1=O", "note": "[Example 45, (3R)-3-Amino-7-[3-(benzyloxymethyl)-1,2,4-oxadiazol-5-yl]-5-[(4-chlorophenyl)methyl]-8-fluoro-1,1-dioxo-2,3-dihydro-1λ^6,5-benzothiazepin-4-one]", "values": [{"measurement": "Emax", "result": 80, "unit": "%"}, {"measurement": "pEC50", "result": 5.71}]}
{"smiles": "NCc1noc(-c2cc3c(cc2F)S(=O)(=O)C[C@H](N)C(=O)N3Cc2ccc(Cl)cc2)n1", "note": "[Example 50, (3R)-3-amino-7--[3-(aminomethyl)-1,2,4-oxadiazol-5-yl]-5-[(4-chlorophenyl)methyl]-8-fluoro-1,1-dioxo-2,3-dihydro-1λ^6,5-benzothiazepin-4-one]", "values": [{"measurement": "Emax", "result": 40, "unit": "%"}, {"measurement": "pEC50", "result": "< 4.70"}]}
{"smiles": "CCc1noc(-c2ccc3c(c2)N(Cc2ccc(Cl)cc2)C(=O)[C@@H](N)CS3(=O)=O)n1", "note": "[Example 51, (3R)-3-amino-5-[(4-chlorophenyl)methyl]-7-(3-ethyl-1,2,4-oxadiazol-5-yl)-1,1-dioxo-2,3-dihydro-1λ^6,5-benzothiazepin-4-one]", "values": [{"measurement": "Emax", "result": 94, "unit": "%"}, {"measurement": "pEC50", "result": 5.57}]}
{"smiles": "N[C@H]1CS(=O)(=O)c2cc(F)c(-c3nnc(CCCC(F)(F)F)o3)cc2N(Cc2ccc(Cl)cc2)C1=O", "note": "[Example 79, (3R)-3-Amino-5-[(4-chlorophenyl)methyl]-8-fluoro-1,1-dioxo-7-[5-(4,4,4-trifluorobutyl)-1,3,4-oxadiazol-2-yl]-2,3-dihydro-1λ^6,5-benzothiazepin-4-one]", "values": [{"measurement": "Emax", "result": 154, "unit": "%"}, {"measurement": "pEC50", "result": 6.76}]}
